# Experimental data: US4961920A, “Phototherapeutic monovinyl and divinyl ether-linked dimers” (Luminis Pty, Ltd., priority 1988, dated 1990)
# Test system: Lewis lung carcinoma cells
# Assay: Photosensitization of tumors: days for Lewis lung carcinoma to regrow to palpable tumor in mice after red-light irradiation
# Format: in vivo
# Details: 25-60 mg/kg, i.p. or i.v.; red light 24 h after dosing; groups of 10 C57BL mice; end point 5 out of 10 mice regrow palpable tumor
# Excerpt: Lewis lung carcinoma cells (Dr. L. Dent, Flinders Medical Centre), are transplanted into the back of C57BL mice by subcutaneous injection of approximately 10^6 cells per mouse. […] Twenty-four hours later mice are anesthetized, the fur over the tumor shaved, and a 1 cm diameter area over the tumor is irradiated with red light as specified. Mice are palpated daily for recurrence of tumor. The end point is the number of days for 5 out of 10 mice to regrow palpable tumor.
# Light can be supplied by a gold metal vapor laser (Quentron Optica Pty. Ltd.) with wavelength 627.8 nm. This laser generates average light intensities of 400 mW coupled to a 400 um quartz fiber and can be positioned to create a 1 cm diameter spot.
# Data were recorded as "TC50 "--the first time (in days) after treatment for the tumor to regrow to a palpable stage (as shown in Table 1).
substance,measurement,value
Monohydroxyethyl Monovinyl Deuteroporphyrin Ether-linked Dimer,TC50 (first time after treatment for the tumor to regrow to a palpable stage),3 days
Divinyldeuteroporphyrin Ether-linked Dimer [(1) where both R = vinyl],TC50 (first time after treatment for the tumor to regrow to a palpable stage),7 days
